Test results from patent publication US9204653B2, “5-fluoro pyrimidine derivatives” (DOW AGROSCIENCES LLC, priority 2008, dated 2015).
Like-named read-outs stand apart in the source and are kept apart here.

System: Mycosphaerella graminicola; Anamorph: Septoria tritici; Bayer Code SEPTTR
Assay: Leaf blotch of wheat, foliar fungicide treatment, one day protectant (1DP) or three day curative (3DC)
Type: in vivo, Septoria tritici on wheat plants (variety Yuma)
Details: Zymoseptoria tritici; for pest or weed control at 50 ppm / pest or weed control at 200 ppm: % disease control rating
[1] = 24 h, one day protectant (1DP), 25 ppm, rating of percent disease control, read-out: SETTTR 1DP 25 ppm
[2] = 24 h, one day protectant (1DP), rating of percent disease control, read-out: SEPTTR 1DP 100 ppm
[3] = 72 h, three day curative (3DC), 25 ppm, rating of percent disease control, read-out: SEPTTR 3DC 25 ppm
[4] = 72 h, three day curative (3DC), rating of percent disease control, read-out: SEPTTR 3DC 100 ppm
[5] = 24 h, one day protectant (1DP), 25 ppm, percent disease control rating, read-out: SETTTR 1DP 25 ppm
[6] = 24 h, one day protectant (1DP), percent disease control rating, read-out: SEPTTR 1DP 100 ppm
[7] = 72 h, three day curative (3DC), 25 ppm, percent disease control rating, read-out: SEPTTR 3DC 25 ppm
[8] = 72 h, three day curative (3DC), percent disease control rating, read-out: SEPTTR 3DC 100 ppm
[9] = 24 h, one day protectant, 25 ppm, rating of percent disease control, read-out: SETTTR 1DP 25 ppm
[10] = 24 h, one day protectant, rating of percent disease control, read-out: SEPTTR 1DP 100 ppm
[11] = 72 h, three day curative, 25 ppm, rating of percent disease control, read-out: SEPTTR 3DC 25 ppm
[12] = 72 h, three day curative, rating of percent disease control, read-out: SEPTTR 3DC 100 ppm

SMILES | pest or weed control at 25 ppm [1] [%] | pest or weed control at 100 ppm [2] [%] | pest or weed control at 25 ppm [3] [%] | pest or weed control at 100 ppm [4] [%] | other results
COc1cc(F)cc(F)c1COc1ncc(F)c(N)n1 [Compound 787] | 76 to 100 | 76 to 100 | 76 to 100 | 76 to 100 | –
CCOc1ccc(COc2ncc(F)c(N)n2)cc1 [Compound 400] | 76 to 100 | 76 to 100 | 76 to 100 | 76 to 100 | –
Fc1cnc(OCc2ccccc2)nc1N/N=C/c1ccco1 [Compound 357] | 26 to 50 | 26 to 50 | 0 to 25 | 51 to 75 | –
CC(C)(C)OC(=O)Nc1nc(OCc2ccc(F)cc2)ncc1F [Compound 101] | – | – | – | – | pest or weed control at 25 ppm [5]: 51 to 75%; pest or weed control at 100 ppm [6]: 51 to 75%; pest or weed control at 25 ppm [7]: 0 to 25%; pest or weed control at 100 ppm [8]: 0 to 25%
Nc1nc(OCc2ccc(OCc3ccccc3)cc2)ncc1F [Compound 193] | 76 to 100 | 76 to 100 | 76 to 100 | 76 to 100 | –
CCOC(=O)Nc1nc(OCc2ccccc2OC)ncc1F [Compound 150] | – | – | – | – | pest or weed control at 25 ppm [5]: 0 to 25%; pest or weed control at 100 ppm [6]: 76 to 100%; pest or weed control at 25 ppm [7]: 26 to 50%; pest or weed control at 100 ppm [8]: 76 to 100%
Cc1cnc(CNc2nc(OCC(F)(F)F)ncc2F)cn1 [Compound 818] | – | – | – | – | pest or weed control at 50 ppm (24 h, one day protectant): 0 to 25%; pest or weed control at 200 ppm (24 h, one day protectant): 0 to 25%
Fc1ccccc1CNc1nc(OCc2ccc(Cl)cc2)ncc1F [Compound 918] | – | – | – | – | pest or weed control at 50 ppm (24 h, one day protectant): 76 to 100%; pest or weed control at 200 ppm (24 h, one day protectant): 76 to 100%
Fc1ccc(COc2ncc(F)c(NCc3ccccc3F)n2)cc1 [Compound 30, (2-Fluorobenzyl)-[5-fluoro-2-(4-fluorobenzyloxy)pyrimidin-4-yl]amine] | – | – | – | – | pest or weed control at 25 ppm [5]: 51 to 75%; pest or weed control at 100 ppm [6]: 76 to 100%; pest or weed control at 25 ppm [7]: 51 to 75%; pest or weed control at 100 ppm [8]: 76 to 100%
CCCCOc1cccc(C(C)Oc2ncc(F)c(N)n2)c1 (stereo not shown) [Compound 790] | 76 to 100 | 76 to 100 | 76 to 100 | 76 to 100 | –
CCOCNc1nc(OCc2ccccc2OC)ncc1F [Compound 331] | 76 to 100 | 76 to 100 | 76 to 100 | 76 to 100 | –
COc1cccc(COc2ncc(F)c(/N=C/N(C)C)n2)c1 [Compound 692] | – | – | – | – | pest or weed control at 25 ppm [9]: 76 to 100%; pest or weed control at 100 ppm [10]: 76 to 100%; pest or weed control at 25 ppm [11]: 76 to 100%; pest or weed control at 100 ppm [12]: 76 to 100%
Fc1ccc(COc2ncc(F)c(NC3CC3)n2)c(F)c1 [Compound 834] | – | – | – | – | pest or weed control at 200 ppm (24 h, one day protectant): 76 to 100%
COc1cccc(COc2ncc(F)c(-n3ccnc3)n2)c1 [Compound 334] | 76 to 100 | 76 to 100 | 76 to 100 | 76 to 100 | –
COc1ccc(COc2ncc(F)c(NC(=S)Nc3ccccc3F)n2)cc1F [Compound 769] | 51 to 75 | 76 to 100 | 0 to 25 | 76 to 100 | –
C/C=C(C)/C=N/Nc1nc(OCc2cccc(OC)c2)ncc1F [Compound 285] | 51 to 75 | 76 to 100 | 26 to 50 | 26 to 50 | –
Fc1ccccc1CNC(=S)Nc1nc(OCc2ccccc2)ncc1F [Compound 438] | 51 to 75 | 76 to 100 | 0 to 25 | 0 to 25 | –
O=C(Nc1nc(O)ncc1F)c1ccsc1 [Compound 979] | – | – | – | – | pest or weed control at 25 ppm (24 h, one day protectant (1DP), 25 ppm (first 1DP column), percent control rating, read-out: SETTTR 1DP 25 ppm): 0 to 25%; pest or weed control at 25 ppm (24 h, one day protectant (1DP), 25 ppm as printed (second 1DP column), percent control rating, read-out: SETTTR 1DP 25 ppm): 26 to 50%; pest or weed control at 25 ppm (72 h, three day curative (3DC), 25 ppm, percent control rating, read-out: SEPTTR 3DC 25 ppm): 0 to 25%; pest or weed control at 100 ppm (72 h, three day curative (3DC), percent control rating, read-out: SEPTTR 3DC 100 ppm): 51 to 75%
CC(C)Oc1ccc(COc2ncc(F)c(N)n2)cc1 [Compound 783] | 76 to 100 | 76 to 100 | 76 to 100 | 76 to 100 | –
Cc1cc(C)c(COc2ncc(F)c(N)n2)cc1C [Compound 691] | – | – | – | – | pest or weed control at 25 ppm [9]: 51 to 75%; pest or weed control at 100 ppm [10]: 76 to 100%; pest or weed control at 25 ppm [11]: 51 to 75%; pest or weed control at 100 ppm [12]: 76 to 100%
